Laboratory results published in patent US11339161B2, “Triazolo pyridines as modulators of gamma-secretase” (Boehringer Ingelheim International GmbH, priority 2017, dated 2022).
Read-outs that look alike come from different tables or passages of the source.

Legend:
ABL1 = ABL1 (Homo sapiens, UniProt P00519); assay: Z'-LYTE SelectScreen biochemical kinase assay ABL1
Source text: (§1) Thermo Fisher Scientific SelectScreen™ Biochemical Kinase Profiling Service Z′-LYTE™ Screening Protocol and Assay Conditions Assay Theory
(§2) The […] biochemical assay employs a fluorescence-based, coupled-enzyme format and is based on the differential sensitivity of phosphorylated and non-phosphorylated peptides to proteolytic cleavage. The peptide substrate is labeled with two fluorophores—one at each end—that make up a FRET pair. In the primary reaction, the kinase transfers the gamma-phosphate of ATP to a single tyrosine, serine or threonine residue in a synthetic FRET-peptide. In the secondary reaction, a site-specific protease recognizes and cleaves non-phosphorylated FRET-peptides. Phosphorylation of FRET-peptides suppresses cleavage by the Development Reagent. Cleavage disrupts FRET between the donor (i.e., coumarin) and acceptor (i.e., fluorescein) fluorophores on the FRET-peptide, whereas uncleaved, phosphorylated FRET-peptides maintain FRET. A ratiometric method, which calculates the ratio (Emission Ratio=Coumarin emission (445 nm)/Fluorescein emission (520 nm)) of donor emission to acceptor emission after excitation of the donor fluorophore at 400 nm, is used to quantitate reaction progress, as shown in the equation below. A significant benefit of this ratiometric method for quantitating reaction progress is the elimination of well-to-well variations in FRET-peptide concentration and signal intensities. As a result, the assay yields very high Z′-factor values (>0.7) at a low percent phosphorylation. Both cleaved and uncleaved FRET-peptides contribute to the fluorescence signals and therefore to the Emission Ratio. The extent of phosphorylation of the FRET-peptide can be calculated from the Emission Ratio. The Emission Ratio will remain low if the FRET-peptide is phosphorylated (i.e., no kinase inhibition) and will be high if the FRET-peptide is non-phosphorylated (i.e., kinase inhibition).
(§3) The Test Compounds are screened in 1% DMSO (final) in the well. For 10 point titrations, 3-fold serial dilutions are conducted from the starting concentration of the customer's choosing.
(§4) All Peptide/Kinase Mixtures are diluted to a 2× working concentration in the appropriate Kinase Buffer (see section Kinase Specific Assay Conditions for a complete description).
(§5) All ATP Solutions are diluted to a 4× working concentration in Kinase Buffer (50 mM HEPES pH 7.5, 0.01% BRIJ-35, 10 mM MgCl2, 1 mM EGTA). ATP Km apparent is previously determined using a Z″-LYTE assay.
(§6) The Development Reagent is diluted in Development Buffer (see section Kinase-Specific Assay Conditions—Direct and Cascade for a complete description).
(§7) Bar-coded Corning, low volume NBS, black 384-well plate (Corning Cat. #4514) • 1. 100 nL—100× Test Compound in 100% DMSO • 2. 2.4 μL—Kinase buffer • 3. 5 μL—2× Peptide/Kinase Mixture • 4. 2.5 μL—4×ATP Solution • 5. 30—second plate shake • 6. 60—minute Kinase Reaction incubation at room temperature • 7. 5 μL—Development Reagent Solution • 8. 30—second plate shake • 9. 60—minute Development Reaction incubation at room temperature • 10. Read on fluorescence plate reader and analyze the data Z′-LYTE Assay Controls
(§8) SelectScreen Kinase Profiling Service uses XLfit from IDBS. The dose response curve is curve fit to model number 205 (sigmoidal dose-response model).
(§9) The 2×ABL1/Tyr 02 mixture is prepared in 50 mM HEPES pH 7.5, 0.01% BRIJ-35, 10 mM MgCl2, 1 mM EGTA. The final 10 μL Kinase Reaction consists of 0.29-1.26 ng ABL1 and 2 μM Tyr 02 in 50 mM HEPES pH 7.5, 0.01% BRIJ-35, 10 mM MgCl2, 1 mM EGTA. After the 1 hour Kinase Reaction incubation, 5 μL of a 1:128 dilution of Development Reagent A is added.

CDK5/p35 = CDK5/p35 (Homo sapiens, UniProt Q00535); assay: Z'-LYTE SelectScreen biochemical kinase assay CDK5/p35
Chain of CDK5/p35 (Q00535 whole entry): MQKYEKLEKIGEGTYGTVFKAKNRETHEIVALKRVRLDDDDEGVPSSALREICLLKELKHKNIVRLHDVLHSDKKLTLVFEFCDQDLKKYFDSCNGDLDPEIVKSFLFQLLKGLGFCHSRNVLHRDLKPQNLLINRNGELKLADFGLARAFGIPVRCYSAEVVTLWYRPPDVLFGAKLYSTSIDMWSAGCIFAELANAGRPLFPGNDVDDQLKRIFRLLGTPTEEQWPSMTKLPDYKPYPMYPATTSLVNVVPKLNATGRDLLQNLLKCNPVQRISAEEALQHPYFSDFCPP
Chain of CDK5/p35 (Q15078 whole entry partner): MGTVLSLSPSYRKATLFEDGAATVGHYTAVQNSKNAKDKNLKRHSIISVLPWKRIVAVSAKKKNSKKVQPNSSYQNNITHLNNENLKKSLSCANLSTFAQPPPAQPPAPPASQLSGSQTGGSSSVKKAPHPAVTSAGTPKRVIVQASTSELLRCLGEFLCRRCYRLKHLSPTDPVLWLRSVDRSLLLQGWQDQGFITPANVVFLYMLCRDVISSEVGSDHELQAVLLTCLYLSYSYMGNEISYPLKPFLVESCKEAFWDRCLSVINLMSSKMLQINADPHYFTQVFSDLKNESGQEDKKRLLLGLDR
Source text: as §1, §2, §3, §4, §5, §6, §7, §8
as §9, with “2×CDK5/p35/Ser/Thr 12” for “2×ABL1/Tyr 02”, “0.14-1.3” for “0.29-1.26”, “CDK5/p35” for “ABL1”, “Ser/Thr 12” for “Tyr 02”, “1:4096” for “1:128”

FLT4 (VEGFR3) = FLT4 (VEGFR3) (Homo sapiens, UniProt P35916); assay: Z'-LYTE SelectScreen biochemical kinase assay FLT4 (VEGFR3)
Chain of FLT4 (VEGFR3) (P35916 25-1363): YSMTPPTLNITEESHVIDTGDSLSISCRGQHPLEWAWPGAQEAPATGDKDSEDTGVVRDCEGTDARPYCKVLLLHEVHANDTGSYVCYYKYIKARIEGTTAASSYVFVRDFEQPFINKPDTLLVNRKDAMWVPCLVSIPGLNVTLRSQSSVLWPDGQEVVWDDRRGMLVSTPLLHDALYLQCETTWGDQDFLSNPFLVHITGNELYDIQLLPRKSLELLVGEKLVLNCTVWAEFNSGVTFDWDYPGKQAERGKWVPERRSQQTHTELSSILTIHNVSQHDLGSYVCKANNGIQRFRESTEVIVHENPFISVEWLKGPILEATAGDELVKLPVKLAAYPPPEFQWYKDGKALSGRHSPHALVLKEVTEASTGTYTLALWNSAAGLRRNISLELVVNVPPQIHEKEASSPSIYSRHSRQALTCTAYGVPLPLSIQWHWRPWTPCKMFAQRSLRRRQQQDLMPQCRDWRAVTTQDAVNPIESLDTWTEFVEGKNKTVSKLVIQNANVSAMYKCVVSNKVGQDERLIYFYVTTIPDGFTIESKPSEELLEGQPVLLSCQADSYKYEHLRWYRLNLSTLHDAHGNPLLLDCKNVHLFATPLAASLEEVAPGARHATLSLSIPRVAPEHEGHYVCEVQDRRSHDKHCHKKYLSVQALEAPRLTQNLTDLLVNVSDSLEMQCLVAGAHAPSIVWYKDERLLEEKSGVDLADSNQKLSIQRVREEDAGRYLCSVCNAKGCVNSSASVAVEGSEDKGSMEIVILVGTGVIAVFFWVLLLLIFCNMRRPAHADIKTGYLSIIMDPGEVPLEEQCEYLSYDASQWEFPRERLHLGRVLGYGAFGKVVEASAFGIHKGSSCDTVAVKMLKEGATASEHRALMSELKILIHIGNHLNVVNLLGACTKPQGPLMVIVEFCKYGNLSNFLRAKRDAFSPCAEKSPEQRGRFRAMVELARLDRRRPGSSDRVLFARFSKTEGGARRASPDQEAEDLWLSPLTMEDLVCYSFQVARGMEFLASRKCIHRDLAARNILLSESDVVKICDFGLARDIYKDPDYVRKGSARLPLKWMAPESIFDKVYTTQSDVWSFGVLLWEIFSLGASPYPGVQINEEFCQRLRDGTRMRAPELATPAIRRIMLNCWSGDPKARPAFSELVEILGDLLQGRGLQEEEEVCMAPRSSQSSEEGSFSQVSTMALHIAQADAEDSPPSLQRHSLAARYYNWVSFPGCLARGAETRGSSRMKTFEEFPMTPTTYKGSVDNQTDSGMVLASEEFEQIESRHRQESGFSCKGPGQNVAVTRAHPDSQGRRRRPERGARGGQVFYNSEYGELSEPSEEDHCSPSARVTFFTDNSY
Source text: as §1, §2, §3, §4, §5, §6, §7, §8
The 2×FLT4 (VEGFR3)/Tyr 04 mixture is prepared in 50 mM HEPES pH 7.5, 0.01% BRIJ-35, 10 mM MgCl2, 4 mM MnCl2, 1 mM EGTA, 2 mM DTT. The final 10 μL Kinase Reaction consists of 2-10.5 ng FLT4 (VEGFR3) and 2 μM Tyr 04 in 50 mM HEPES pH 7.5, 0.01% BRIJ-35, 10 mM MgCl2, 2 mM MnCl2, 1 mM EGTA, 1 mM DTT. After the 1 hour Kinase Reaction incubation, 5 μL of a 1:64 dilution of Development Reagent B is added.

PTK2 (FAK) = PTK2 (FAK) (Homo sapiens, UniProt Q05397); assay: Z'-LYTE SelectScreen biochemical kinase assay PTK2 (FAK)
Chain of PTK2 (FAK) (Q05397 whole entry): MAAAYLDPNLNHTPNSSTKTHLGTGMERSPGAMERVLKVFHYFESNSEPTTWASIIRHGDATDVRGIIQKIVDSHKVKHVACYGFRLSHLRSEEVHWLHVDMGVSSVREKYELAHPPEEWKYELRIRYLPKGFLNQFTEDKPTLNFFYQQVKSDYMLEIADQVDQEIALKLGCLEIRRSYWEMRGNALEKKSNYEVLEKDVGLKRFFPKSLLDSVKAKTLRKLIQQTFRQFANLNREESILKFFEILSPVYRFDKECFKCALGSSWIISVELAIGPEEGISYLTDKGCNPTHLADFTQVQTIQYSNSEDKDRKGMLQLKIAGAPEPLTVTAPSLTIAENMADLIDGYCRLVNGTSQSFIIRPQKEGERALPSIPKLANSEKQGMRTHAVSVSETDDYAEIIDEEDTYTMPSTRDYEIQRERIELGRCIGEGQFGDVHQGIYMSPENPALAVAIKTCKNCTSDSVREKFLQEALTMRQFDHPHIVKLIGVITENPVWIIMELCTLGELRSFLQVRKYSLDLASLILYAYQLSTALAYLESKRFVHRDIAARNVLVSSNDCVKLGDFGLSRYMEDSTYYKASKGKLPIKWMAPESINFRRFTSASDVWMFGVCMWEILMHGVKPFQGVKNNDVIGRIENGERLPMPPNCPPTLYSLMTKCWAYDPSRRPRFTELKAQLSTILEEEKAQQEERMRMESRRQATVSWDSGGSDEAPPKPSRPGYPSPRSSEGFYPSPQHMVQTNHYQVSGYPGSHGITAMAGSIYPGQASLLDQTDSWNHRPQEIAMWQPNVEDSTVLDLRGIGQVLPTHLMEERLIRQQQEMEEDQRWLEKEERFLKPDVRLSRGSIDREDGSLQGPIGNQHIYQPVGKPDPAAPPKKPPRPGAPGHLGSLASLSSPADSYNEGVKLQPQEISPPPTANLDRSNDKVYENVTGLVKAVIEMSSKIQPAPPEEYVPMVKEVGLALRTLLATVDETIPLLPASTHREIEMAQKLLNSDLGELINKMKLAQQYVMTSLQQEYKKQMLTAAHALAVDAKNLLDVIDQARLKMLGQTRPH
Source text: as §1, §2, §3, §4, §5, §6, §7, §8
as §9, with “The 2×PTK2 (FAK)/Tyr 07” for “The 2×ABL1/Tyr 02”, “of 12.5-100” for “of 0.29-1.26”, “ng PTK2 (FAK)” for “ng ABL1”, “Tyr 07” for “Tyr 02”, “a 1:16” for “a 1:128”, “Reagent B” for “Reagent A”

[1] = 10 μmolar compound concentration, ATP at Km app, read-out: ABL1 inhibition
[2] = read-out: % Inhibition mean ABL1
[3] = 10 μmolar compound concentration, ATP at Km app, read-out: CDK5/p35 inhibition
[4] = read-out: % Inhibition mean CDK5/p35
[5] = 10 μmolar compound concentration, ATP at Km app, read-out: FLT4 (VEGFR3) inhibition
[6] = read-out: % Inhibition mean FLT4 (VEGFR3)
[7] = 10 μmolar compound concentration, ATP at Km app, read-out: PTK2 (FAK) inhibition
[8] = read-out: % Inhibition mean PTK2 (FAK)

Chain of ABL1 (P00519 whole entry): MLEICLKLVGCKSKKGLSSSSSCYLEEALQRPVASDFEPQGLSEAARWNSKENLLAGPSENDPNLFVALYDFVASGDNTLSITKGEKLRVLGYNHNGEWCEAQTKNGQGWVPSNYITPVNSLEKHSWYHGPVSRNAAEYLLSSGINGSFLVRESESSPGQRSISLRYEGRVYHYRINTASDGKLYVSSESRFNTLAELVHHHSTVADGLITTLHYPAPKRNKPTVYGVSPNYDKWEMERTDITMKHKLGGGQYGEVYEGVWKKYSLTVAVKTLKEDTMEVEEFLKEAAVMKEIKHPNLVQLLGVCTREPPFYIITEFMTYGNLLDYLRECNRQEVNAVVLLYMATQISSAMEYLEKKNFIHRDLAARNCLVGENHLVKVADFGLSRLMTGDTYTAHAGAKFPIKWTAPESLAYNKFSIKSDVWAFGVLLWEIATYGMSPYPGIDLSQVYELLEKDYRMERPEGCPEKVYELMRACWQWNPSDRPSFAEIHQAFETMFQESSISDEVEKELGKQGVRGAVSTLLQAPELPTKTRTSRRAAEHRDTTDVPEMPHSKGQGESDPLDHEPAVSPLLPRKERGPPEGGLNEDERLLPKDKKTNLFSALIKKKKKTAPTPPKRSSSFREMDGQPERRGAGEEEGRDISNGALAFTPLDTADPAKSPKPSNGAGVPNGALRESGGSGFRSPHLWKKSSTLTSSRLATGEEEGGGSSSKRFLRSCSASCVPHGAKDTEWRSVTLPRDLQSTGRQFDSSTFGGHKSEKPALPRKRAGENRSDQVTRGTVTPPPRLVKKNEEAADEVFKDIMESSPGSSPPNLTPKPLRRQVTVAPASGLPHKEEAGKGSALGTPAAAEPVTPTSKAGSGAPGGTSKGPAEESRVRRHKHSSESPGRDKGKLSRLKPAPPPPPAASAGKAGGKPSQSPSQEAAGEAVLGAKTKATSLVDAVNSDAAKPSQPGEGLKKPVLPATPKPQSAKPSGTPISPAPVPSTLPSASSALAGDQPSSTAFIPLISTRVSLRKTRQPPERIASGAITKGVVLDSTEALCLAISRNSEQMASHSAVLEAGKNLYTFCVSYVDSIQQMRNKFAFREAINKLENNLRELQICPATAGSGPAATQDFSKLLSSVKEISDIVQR

Compound	inhibition at 10 µM (ABL1; [1])	inhibition at 10 µM (ABL1; [2])	inhibition at 10 µM (CDK5/p35; [3])	inhibition at 10 µM (CDK5/p35; [4])	inhibition at 10 µM (FLT4 (VEGFR3); [5])	inhibition at 10 µM (FLT4 (VEGFR3); [6])	inhibition at 10 µM (PTK2 (FAK); [7])	inhibition at 10 µM (PTK2 (FAK); [8])	inhibition at 10 µM (ABL1; read-out: % Inhibition mean)	inhibition at 10 µM (CDK5/p35; read-out: % Inhibition mean)	inhibition at 10 µM (FLT4 (VEGFR3); read-out: % Inhibition mean)	inhibition at 10 µM (PTK2 (FAK); read-out: % Inhibition mean)
CCc1nn(C)c2c1CCC(Nc1nc3c(-c4ccc(F)cc4C)cccn3n1)C2 (stereo not shown) [Example 54, (3-Ethyl-1-methyl-4,5,6,7-tetrahydro-1H-indazol-6-yl)-[8-(4-fluoro-2-methyl-phenyl)-[1,2,4]triazolo[1,5-a]pyridine-2-yl]-amine]	< 40%	12%	< 40%	18%	< 40%	38%	< 40%	14%	–	–	–	–
CCCCCn1ncc2c1CCC(Nc1nc3c(-c4ccc(F)cc4C)cccn3n1)C2 (stereo not shown) [Example 47, [8-(4-fluoro-2-methyl-phenyl)-[1,2,4]triazolo[1,5-a]pyridine-2-yl]-(1-pentyl-4,5,6,7-tetrahydro-1H-indazol-5-yl)-amine]	< 40%	3%	< 40%	13%	< 40%	13%	< 40%	19%	–	–	–	–
CCn1ncc2c1C(C)CC(Nc1nc3c(-c4cc(F)c(F)c(F)c4)cccn3n1)C2 (stereo not shown) [Example 49, (1-Ethyl-7-methyl-4,5,6,7-tetrahydro-1H-indazol-5-yl)-[8-(3,4,5-trifluoro-phenyl)-[1,2,4]triazolo[1,5-a]pyridine-2-yl]-amine]	< 40%	15%	< 40%	7%	< 40%	33%	< 40%	32%	–	–	–	–
Fc1cccc(-c2cccn3nc(Nc4ccc5[nH]cnc5c4)nc23)c1 [Cpd. 293 in WO09155551, reference compound]	> 80%	–	> 80%	–	> 80%	–	> 80%	–	97%	90%	94%	94%
Cc1cc(F)ccc1-c1cccn2nc(NC3CCc4cnn(C)c4C3)nc12 (stereo not shown) [Example 40, [8-(4-Fluoro-2-methyl-phenyl)-[1,2,4]triazolo[1,5-a]pyridine-2-yl]-(1-methyl-4,5,6,7-tetrahydro-1H-indazol-6-yl)-amine]	< 40%	9%	40 to 80%	61%	< 40%	16%	< 40%	18%	–	–	–	–
CCn1ncc2c1CCC(Nc1nc3c(-c4ccc(F)cc4C)cccn3n1)C2 (stereo not shown) [Example 42, (1-Ethyl-4,5,6,7-tetrahydro-1H-indazol-5-yl)-[8-(4-fluoro-2-methyl-phenyl)-[1,2,4]triazolo[1,5-a]pyridine-2-yl]-amine]	< 40%	19%	< 40%	39%	< 40%	31%	< 40%	26%	–	–	–	–
CCn1ncc2c1CCC(Nc1nc3c(-c4ccccc4)cccn3n1)C2 (stereo not shown) [Example 57, (1-Ethyl-4,5,6,7-tetrahydro-1H-indazol-5-yl)-(8-phenyl-[1,2,4]triazolo[1,5-a]pyridine-2-yl)-amine]	< 40%	11%	< 40%	26%	40 to 80%	43%	< 40%	16%	–	–	–	–
CCn1ncc2c1CCC(Nc1nc3c(-c4cccnc4)cccn3n1)C2 (stereo not shown) [Example 63, (1-Ethyl-4,5,6,7-tetrahydro-1H-indazol-5-yl)-(8-pyridin-3-yl-[1,2,4]triazolo[1,5-a]pyridine-2-yl)-amine]	< 40%	15%	40 to 80%	47%	< 40%	32%	< 40%	13%	–	–	–	–
CCn1ncc2c1CCC(Nc1nc3c(-c4cccc(Cl)c4)cccn3n1)C2 (stereo not shown) [Example 59, [8-(3-Chloro-phenyl)-[1,2,4]triazolo[1,5-a]pyridine-2-yl]-(1-ethyl-4,5,6,7-tetrahydro-1H-indazol-5-yl)-amine]	< 40%	19%	< 40%	28%	< 40%	39%	< 40%	16%	–	–	–	–
CCn1ncc2c1CCC(Nc1nc3c(-c4ccc(F)cc4)cccn3n1)C2 (stereo not shown) [Example 55, (1-Ethyl-4,5,6,7-tetrahydro-1H-indazol-5-yl)-[8-(4-fluoro-phenyl)-[1,2,4]triazolo[1,5-a]pyridine-2-yl]-amine]	< 40%	21%	< 40%	13%	40 to 80%	42%	< 40%	8%	–	–	–	–
CCn1ncc2c1CC[C@@H](Nc1nc3c(-c4ccc(F)cc4C)cccn3n1)C2 [Example R-42, (R)-(1-Ethyl-4,5,6,7-tetrahydro-1H-indazol-5-yl)-[8-(4-fluoro-2-methyl-phenyl)-[1,2,4]triazolo[1,5-a]pyridine-2-yl]-amine]	< 40%	14%	< 40%	39%	< 40%	36%	< 40%	28%	–	–	–	–
